Data on 23 compounds can be found in patent publication US10328163B2, “Compounds binding to neuropathological aggregates” (Technische Universität München, priority 2014, dated 2019).

In one data set the target is Aβ1-40 (Homo sapiens, UniProt P05067). In words: Competition binding assay vs [^3H]PiB on synthetic amyloid peptide aggregates (Aβ1-40). To be noted: for inhibition at 0.1 µM: 100 nM; for Ki: read-out: Affinity Ki, Aβ1-40. The protocol: (§1) Saturation and competition binding assays of compounds in this invention towards synthetic amyloid peptides, human tau-441 recombinant and human α-synuclein recombinant aggregate (fibrils) were performed similar to previously reported assays (Manook et al. 2012 and Yousefi et al. 2011) and adapted to the change of peptides and label. Aggregates sample was deployed on 96-well cell culture plates (Greiner Bio-One, Germany) to a final reaction volume of […] per well using 8-channel electronic pipettes (Mettler Toledo, Germany) giving 12-24 octuples of data points per sample. Bound and free fractions were separated by vacuum filtration through polyethyleneimine-pretreated GF/B glass filtermats using a semi-automated Harvester 96 Mach II M (Tomtec, USA). Filters were cut and retained radioactivity determined using an automatic NaI(TI) well-type γ-detector (Wallac 1480-011 Automatic Gamma Counter, PerkinElmer, USA). Data were processed and analyzed using GraphPad Prism 6.0 (GraphPad Software, USA).

Data set [1] addresses human tau-441 recombinant aggregate (fibrils) (Homo sapiens, UniProt P10636). In words: Saturation and competition binding assay on tau aggregates (fibrils). The protocol:
as §1

Data set [2] relates to Aβ1-40, Aβ1-42, τ, α-Syn aggregates. In words: In vitro selectivity / binding profile across aggregates (potential use: targeting of). The settings on record: for Potential Use: Targeting of (in vitro selectivity): Table 2. The protocol:
as §1

For the next data set, the target named is Aβ1-42 (Homo sapiens, UniProt P05067). Put plainly: Competition binding assay vs [^3H]PiB on synthetic amyloid peptide aggregates (Aβ1-42). The settings on record: for inhibition at 0.1 µM: 100 nM; for Ki: read-out: Affinity Ki, Aβ1-42. The method, then:
as §1

Data set [3] addresses human α-synuclein recombinant aggregate (fibrils) (Homo sapiens, UniProt P37840). Put plainly: Saturation and competition binding assay on α-synuclein aggregates (fibrils). To be noted: read-out: Affinity Ki, α-syn. The protocol:
as §1

Data set [4] has as its target T1, Aβ1-40, Aβ1-42, τ, α-Syn aggregates.
T1 construct: other: span over all aggregate types, text summar
Put plainly: In vitro selectivity / binding profile across aggregates (potential use: targeting of). The settings on record: span over all aggregate types, summary of Table 1; read-out: in vitro affinity (Ki) to β-amyloids, NFT τ and synuclein aggregates. The method, then: as §1

The test system of a further data set is β-amyloids. Put plainly: In vitro staining of APP/PS1 tg mouse brain. The data set is classed as binding. The settings on record: 24 month old, 1% solution of compound.
Another data set relates to Aβ and NFT. Put plainly: Ex vivo validation on APP/PS1-tau triple transgenic mouse brain, cross-validated with thioflavin S and AT8. The class given is in vivo.
Another data set can be described thus: log P (octanol/PBS). The class given is physicochemical. To be noted: Table 2. From the text:
Lipophilicity of CNS tracers plays an important role on blood brain barrier (BBB) and neuronal cells uptake. Therefore a library of ^18F-bithiazoles with high binding affinity towards Aβ1-40, Aβ1-42 τ, α-Syn were synthesized and log P (octanol/PBS) of these compounds measured (Table 2). The log P values were between 1.1-3.2.

Setting [5] is: Table 1, read-out: Affinity Ki, T.
The mark [6] stands for this setting: Table 3, read-out: Affinity Ki, τ.

“Also recorded” adds a separate entry of the source. Where two headings read alike, the source gives them in different places.

human tau-441 recombinant aggregate (fibrils), sequence (P10636 1-441 isoform P10636-8): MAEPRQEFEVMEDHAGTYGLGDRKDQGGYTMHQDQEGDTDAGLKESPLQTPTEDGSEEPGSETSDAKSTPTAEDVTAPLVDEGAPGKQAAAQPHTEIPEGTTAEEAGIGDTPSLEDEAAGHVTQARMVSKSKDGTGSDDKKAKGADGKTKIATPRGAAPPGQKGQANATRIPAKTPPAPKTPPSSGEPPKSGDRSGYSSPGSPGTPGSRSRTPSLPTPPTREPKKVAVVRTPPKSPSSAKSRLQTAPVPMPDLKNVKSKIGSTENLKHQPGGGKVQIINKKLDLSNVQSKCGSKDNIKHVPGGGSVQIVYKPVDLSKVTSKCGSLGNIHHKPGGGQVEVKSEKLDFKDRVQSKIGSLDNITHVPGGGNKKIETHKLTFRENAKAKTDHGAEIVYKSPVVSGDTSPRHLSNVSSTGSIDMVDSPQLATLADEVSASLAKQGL
Aβ1-42, sequence (P05067 672-713): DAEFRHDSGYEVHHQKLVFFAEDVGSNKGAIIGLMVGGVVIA
Aβ1-40, sequence (P05067 672-711): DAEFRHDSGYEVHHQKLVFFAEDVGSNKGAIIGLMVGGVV

As for `CN(C)c1ccc(-c2csc(-c3nc(-c4ccc(O)cc4)cs3)n2)cc1` [Compound 1], the inhibition at 0.1 µM was 94% at Aβ1-40 (Table 1) and 88 ± 1% on Aβ1-42 (Table 1). The Ki on Aβ1-40 (Table 1) was 4 nM; in data set [1] (setting [5]), greater than 1000 nM; on Aβ1-42 (Table 1), 6 nM; in data set [3] (Table 1), greater than 1000 nM. Further, the “Potential Use: Targeting of” value in [2] (Table 1) is listed as “Aβ”.

In the case of `COc1ccc(-c2csc(-c3nc(-c4ccc5c(c4)OCO5)cs3)n2)cc1O` [Compound 2], the inhibition at 0.1 µM came to 81 ± 2% on Aβ1-40 (Table 1) and 86 ± 1% at Aβ1-42 (Table 1). For the same compound, the Ki on Aβ1-40 (Table 1) is 10 nM; in [1] (setting [5]), 12 nM; in data set [4], 7 to 12 nM; at Aβ1-42 (Table 1) it was 7 nM; in data set [3] (Table 1) it was 9 nM. In data set [2] (Table 1), the “Potential Use: Targeting of” value is “Aβ, α-syn, τ- aggregates (PAN- ligand)”. In addition, the “in vitro staining of brain” value in the data set with β-amyloids was “specific binding to β-amyloids; also recorded: targets Aβ in the mouse model”. Also, the “ex vivo brain staining, targets labelled” value with Aβ and NFT (APP/PS1-tau triple transgenic mouse, 24 month old, 45 min p.i., 0.6 mg in DMSO, cortical (FIG. 3) and hippocampus (FIG. 4) region) was “targets Aβ and NFT in the mouse model”. Besides, in the data set with Aβ and NFT (APP/PS1 and APP/PS1-tau triple tg mouse model of AD brain), the “specificity of binding, ex vivo and in vitro validation” value is “specific binding of compound 2 to Aβ and NFT”.

For `COc1ccc(-c2csc(-c3nc(-c4ccc5c(c4)OCO5)cs3)n2)cc1F` [Compound 3], the figures for the inhibition at 0.1 µM at Aβ1-40 (Table 1) and at Aβ1-42 (Table 1) were 22 ± 1% and 45 ± 2%, respectively. For the same compound, the values for the Ki (in data set [1] (setting [5]); on Aβ1-42 (Table 1); in [3] (Table 1)) were greater than 1000 nM, 382 nM and 3 nM, respectively.

Consider `CCOc1ccc(-c2csc(-c3nc(-c4ccc5c(c4)OCO5)cs3)n2)cc1` [Compound 4], for which the inhibition at 0.1 µM was determined as 11 ± 2% at Aβ1-40 (Table 1) and 45 ± 2% on Aβ1-42 (Table 1). Besides, the values for the Ki (in data set [1] (setting [5]); on Aβ1-42 (Table 1); in data set [3] (Table 1)) were 558 nM, 386 nM and 10 nM, respectively.

Consider `CCCCOc1ccc(-c2csc(-c3nc(-c4ccc(OC)c(F)c4)cs3)n2)cc1` [Compound 5], for which the inhibition at 0.1 µM at Aβ1-40 (Table 1) was determined as 11%; on Aβ1-42 (Table 1), 45 ± 1%. Further, the figures for the Ki (in data set [1] (setting [5]); at Aβ1-42 (Table 1); in data set [3] (Table 1)) were greater than 1000 nM, 380 nM and 328 nM, respectively. In addition, the “Potential Use: Targeting of” value in data set [2] (Table 1) is “Aβ, α-syn aggregates low binding site”.

For the compound `CCOc1ccc(-c2csc(-c3nc(-c4ccc(OC)cc4)cs3)n2)cc1` [Compound 6], the figures for the inhibition at 0.1 µM on Aβ1-40 (Table 1) and on Aβ1-42 (Table 1) were 22 ± 1% and 30 ± 1%, respectively. The Ki in [1] (setting [5]) is greater than 1000 nM; in [3] (Table 1), 371 nM. Moreover, the “Potential Use: Targeting of” value in data set [2] (Table 1) is listed as “α-syn aggregates low binding site”.

In turn, `CN(C)c1ccc(-c2csc(-c3nc(-c4ccc(OCF)cc4)cs3)n2)cc1` [Compound 7] showed a log partition coefficient (logP) in “log P (octanol/PBS)” of 3.2. In data set [2], the “Potential Use: Targeting of (in vitro selectivity)” value is recorded as “Aβ”.

`Oc1cc(-c2csc(-c3nc(-c4ccc5c(c4)OCO5)cs3)n2)ccc1OCCF` [Compound 8] displayed a logP in the data set “log P (octanol/PBS)” of 2.1. The “Potential Use: Targeting of (in vitro selectivity)” value in data set [2] was “PAN”.

The compound `Oc1cc(-c2csc(-c3nc(-c4ccc5c(c4)OCO5)cs3)n2)ccc1OCCOCCF` [Compound 9] displayed a logP in the data set “log P (octanol/PBS)” of 1.9. The “Potential Use: Targeting of (in vitro selectivity)” value in data set [2] was “PAN”.

`FCCOc1ccc(-c2csc(-c3nc(-c4ccc5c(c4)OCO5)cs3)n2)cc1` [Compound 10]: the logP in “log P (octanol/PBS)” stood at 2.6. For the same compound, in data set [2], the “Potential Use: Targeting of (in vitro selectivity)” value is “α-syn”.

`FCCOCCOc1ccc(-c2csc(-c3nc(-c4ccc5c(c4)OCO5)cs3)n2)cc1` [Compound 11] came in with a logP in “log P (octanol/PBS)” of 2.5. For the same compound, the “Potential Use: Targeting of (in vitro selectivity)” value in data set [2] is “α-syn”.

For the compound `Nc1ccc(-c2csc(-c3nc(-c4ccc(NCCOCCOCCF)cc4)cs3)n2)cc1` [Compound 12], in “log P (octanol/PBS)”, the logP turned out to be 2. The “Potential Use: Targeting of (in vitro selectivity)” value in data set [2] is “Aβ”.

`CN(C)c1ccc(-c2csc(-c3nc(-c4ccc(OCCOCCF)cc4)cs3)n2)cc1` [Compound 13] gave a logP in “log P (octanol/PBS)” of 2.6. For the same compound, the “Potential Use: Targeting of (in vitro selectivity)” value in data set [2] is “Aβ”.

For `Oc1ccc(-c2csc(-c3nc(-c4ccc(OCCOCCF)cc4)cs3)n2)cc1` [Compound 14], in “log P (octanol/PBS)”, the log partition coefficient (logP) is 1.9. Moreover, the “Potential Use: Targeting of (in vitro selectivity)” value in [2] is “The low binding site of Aβ”.

`FCOc1ccc(-c2csc(-c3nc(-c4ccc5c(c4)OCO5)cs3)n2)cc1` [Compound 15] yielded a logP in “log P (octanol/PBS)” of 2.6. Also, the “Potential Use: Targeting of (in vitro selectivity)” value in data set [2] is given as “α-syn”.

Take `Oc1ccc(-c2csc(-c3nc(-c4ccc(OCCOCCF)c(O)c4)cs3)n2)cc1O` [Compound 16]: the logP in “log P (octanol/PBS)” was determined as 1.1. The “Potential Use: Targeting of (in vitro selectivity)” value in data set [2] is listed as “PAN”.

On to `Oc1ccc(-c2csc(-c3nc(-c4ccc(OCCOCCOCCF)cc4)cs3)n2)cc1` [Compound 17], for which the logP in the data set “log P (octanol/PBS)” worked out at 1.8. In data set [2], the “Potential Use: Targeting of (in vitro selectivity)” value is on record as “The low binding site of Aβ”.

In “log P (octanol/PBS)”, `FCCOCCOCCOc1ccc(-c2csc(-c3nc(-c4ccc5c(c4)OCO5)cs3)n2)cc1` [Compound 18] registered a lipophilicity (logP) of 2.3. Also, the “Potential Use: Targeting of (in vitro selectivity)” value in [2] was “α-syn”.

For `CN(C)c1ccc(-c2csc(-c3nc(-c4ccc(NCCOCCOCCF)cc4)cs3)n2)cc1` [Compound 19], in the data set “log P (octanol/PBS)”, the lipophilicity (logP) came to 2.4. In addition, the “Potential Use: Targeting of (in vitro selectivity)” value in data set [2] is recorded as “Aβ”.

As to `CN(C)c1ccc(-c2csc(-c3nc(-c4ccc(O)nc4)cs3)n2)cc1` [Compound 20], the logP in “log P (octanol/PBS)” came to 1.9. In addition, the values for the inhibition at 0.1 µM on Aβ1-40 (Table 3) and at Aβ1-42 (Table 3) were 90% and 89 ± 1%, respectively. Also, the inhibitory constant (Ki) on Aβ1-40 (Table 3) is 5 nM; in [1] (setting [6]) it was greater than 1000 nM; on Aβ1-42 (Table 3) it was 6 nM; in [3] (Table 3), greater than 1000 nM. For the same compound, the “Potential Use: Targeting of (in vitro selectivity)” value in [2] is given as “Aβ”. In addition, the “Potential Use: Targeting of” value in data set [2] (Table 3) is recorded as “Aβ”.

As to `CN(C)c1ccc(-c2csc(-c3nc(-c4ccc(F)nc4)cs3)n2)cc1` [Compound 21], the log partition coefficient (logP) in the data set “log P (octanol/PBS)” came out at 2.1. Moreover, the inhibition at 0.1 µM at Aβ1-40 (Table 3) is 89 ± 2%; at Aβ1-42 (Table 3) it was 88 ± 1%. In addition, the Ki at Aβ1-40 (Table 3) is 6 nM; in data set [1] (setting [6]), greater than 1000 nM; at Aβ1-42 (Table 3), 6 nM; in [3] (Table 3) it was greater than 1000 nM. In data set [2], the “Potential Use: Targeting of (in vitro selectivity)” value is recorded as “Aβ”. In addition, the “Potential Use: Targeting of” value in [2] (Table 3) is reported as “Aβ”.

For `Fc1ccc(-c2cc(-c3csc(-c4nc(-c5ccc6c(c5)OCO6)cs4)n3)on2)cc1` [Compound 22], the lipophilicity (logP) in “log P (octanol/PBS)” amounted to 3.2. The inhibition at 0.1 µM at Aβ1-40 (Table 3) is 20 ± 1%; on Aβ1-42 (Table 3), 35 ± 2%. Also, the Ki is greater than 500 nM on Aβ1-40 (Table 3), greater than 1000 nM in data set [1] (setting [6]), 492 nM on Aβ1-42 (Table 3) and 6 nM in data set [3] (Table 3). In [2], the “Potential Use: Targeting of (in vitro selectivity)” value is listed as “α-syn”.

As to `COc1sc(-c2csc(-c3nc(-c4ccc5c(c4)OCO5)cs3)n2)cc1F` [Compound 23], the logP in the data set “log P (octanol/PBS)” was found to be 2.9. Moreover, the inhibition at 0.1 µM came out at 87 ± 2% on Aβ1-40 (Table 3) and 86 ± 1% at Aβ1-42 (Table 3). Further, the Ki on Aβ1-40 (Table 3) is 9 nM; in [1] (setting [6]) it was 10 nM; on Aβ1-42 (Table 3), 10 nM; in data set [3] (Table 3), 7 nM. Further, the “Potential Use: Targeting of (in vitro selectivity)” value in data set [2] is “PAN”. Also, in [2] (Table 3), the “Potential Use: Targeting of” value is on record as “PAN”.
